Series [1] has as its system LPS-induced pulmonary neutrophilia in rats. The series can be described thus: In Vivo Assay 1: LPS-induced pulmonary neutrophilia in rats, orally administered PDE4 inhibitors. The note with it: Rattus norvegicus, po, aerosolized LPS 30 min after dosing, BAL 4 hours post LPS, read-out: neutrophilia-inhibition ED50. The text has this:
The purpose of this neutrophilia model is to study the potentially anti-inflammatory effects in vivo of orally administered PDE4 inhibitors on neutrophilia induced by inhalation of aerosolized lipopolysaccharide (LPS), modelling the neutrophil inflammatory component(s) of COPD. See the literature section below for scientific background.
Male Lewis rats (Charles River, Raleigh, N.C., USA) weighing approximately 300-400 grams are pretreated with either (a) test compound suspended in 0.5% methylcellulose (obtainable from Sigma-Aldrich, St Louis, Mo., USA) in water or (b) vehicle only, delivered orally in a dose volume of 10 ml/kg. Generally, dose response curves are generated using the following doses of PDE4 inhibitors: 10.0, 2.0, 0.4, 0.08 and 0.016 mg/kg. Thirty minutes following pretreatment, the rats are exposed to aerosolized LPS (Serotype E. Coli 026:B6 prepared by trichloroacetic acid extraction, obtainable from Sigma-Aldrich, St Louis, Mo., USA), generated from a nebulizer containing a 100 μg/ml LPS solution. Rats are exposed to the LPS aerosol at a rate of 4 L/min for 20 minutes. LPS exposure is carried out in a closed chamber with internal dimensions of 45 cm length×24 cm width×20 cm height. The nebulizer and exposure chamber are contained in a certified fume hood. At 4 hours-post LPS exposure the rats are euthanized by overdose with pentobarbital at 90 mg/kg, administered intraperitoneally. Bronchoalveolar lavage (BAL) is preformed through a 14 gauge blunt needle into the exposed trachea. Five, 5 ml washes are performed to collect a total of 25 ml of BAL fluid. […] Percent neutrophil inhibition at each dose (cf. vehicle) is calculated and a variable slope, sigmoidal dose-response curve is generated, usually using Prism Graph-Pad. […]
Alternative method and results: In an alternative embodiment of the procedure, single oral doses of 10 mg/kg or 1.0 mg/kg of the PDE4 inhibitor (or vehicle) is administered to the rats, and percent neutrophil inhibition is calculated and reported for that specific dose.

The subject of series [2] is pica feeding response. The series can be described thus: In Vivo Assay 2: Rat Pica Model of Emesis. The note with it: oral, rats, dosed orally, upper end given as greater than or equal to about 40 mg/kg. The text has this:
However, a side effect of some PDE4 inhibitors in many species is emesis. Because many rat models of inflammation are well characterized, they have been used in procedures (see e.g. In Vivo Assay 1 above) to show beneficial anti-inflammatory effects of PDE 4 inhibitors. However rats have no emetic response (they have no vomit reflex), so that the relationship between beneficial anti-inflammatory effects of PDE 4 inhibitors and emesis is difficult to study directly in rats.
Pica feeding is a behavioural response to illness in rats wherein rats eat non-nutritive substances such as earth or in particular clay (e.g. kaolin) which may help to absorb toxins. Pica feeding can be induced by motion and chemicals (especially chemicals which are emetic in humans), and can be inhibited pharmacologically with drugs that inhibit emesis in humans. The Rat Pica Model, In Vivo Assay 2, can determine the level of pica response of rats to PDE 4 inhibition at pharmacologically relevant doses in parallel to in vivo anti-inflammatory Assays in (a separate set of) rats (e.g. In Vivo Assay 1 above). […] The Rat TI can for example be calculated as the ratio of a) the potentially-emetic Pica Response ED50 dose from Assay 2 to b) the rat anti-inflammatory ED50 dose (e.g. measured by rat neutrophilia-inhibition in eg In Vivo Assay 1), with larger TI ratios possibly indicating lower emesis at many anti-inflammatory doses. […]
At the end of 72 hours the rats are placed in clean cages and the food cups weighed. […] The food and clay cups and cage debris are weighed the following day and the total clay and food consumed that night by each individual animal is calculated.
A dose response is calculated by first converting the data into quantal response, where animals are either positive or negative for the pica response. A rat is “pica positive” if it consumes greater than or equal to 0.3 grams of clay […] using logistic regression performed by the Statistica software statistical package. A Pica Response ED50 value in mg per kg of body weight can then be calculated.

Molecules are shown by their SMILES.

In the case of `CCn1ncc2c(NC3CCOCC3)c(C(=O)Nc3ccc(F)cc3)cnc21` [Example 22, 1-Ethyl-N-(4-fluorophenyl)-4-(tetrahydro-2H-pyran-4-ylamino)-1H-pryazolo[3,4-b]pyridine-5-carboxamide], the ED50 in series [1] was 0.5 to 2 mg/kg; in series [2] it was 4.8 to 40 mg/kg.

Take `CCNC(=O)c1cnc2c(cnn2CC)c1NC1CCOCC1` [Example 83, 1-Ethyl-N-ethyl-4-(tetrahydro-2H-pyran-4-ylamino)-1H-pyrazolo[3,4-b]pyridine-5-carboxamide]: the ED50 in series [1] lay in the range of 0.5 to 2 mg/kg; in series [2], 4.8 to 40 mg/kg.

For the molecule `CCn1ncc2c(NC3CCOCC3)c(C(=O)NCc3ccc(C(F)(F)F)cc3)cnc21` [Example 155, 1-Ethyl-4-(tetrahydro-2H-pyran-4-ylamino)-N-[4-(trifluoromethyl)benzyl]-1H-pyrazolo[3,4-b]pyridine-5-carboxamide], the ED50 in series [1] is 0.5 to 2 mg/kg; in series [2], 4.8 to 40 mg/kg.

The values above are taken from patent publication US20060089375A1, “Pyrazolo[3,4-b] pyridine compounds, and their use as phosphodiesterase inhibitors” (priority 2002, published 2006).
